Assay results: US10781229B2, “Tris- or neopentyl glycol-based amphiphiles and uses thereof” (Industry-University Cooperation Foundation Hanyang …, priority 2015, dated 2020)

Key:
[1] = target: T1, MelBEc (Escherichia coli, UniProt P02921); assay: Trp to D2G FRET reversal by melibiose, functional state of solubilized MelBEc; assay type: biochemical; conditions: 1.0% by weight, solubilized at 23° C. for 30 minutes
T1 construct: made in house; host or cells: E. coli DW2, right-side-out membrane vesicles
Description: (§1) So as to investigate functional states of MelB proteins dissolved by amphipathic molecules, Førster resonance energy transfer (FRET) to 2′-(N-dansyl)aminoalkyl-1-thio-β-D-galactopyranoside (D^2G), as a fluorescence ligand, was measured in tryptophan (Trp). […] However, if a protein dissolved by an amphipathic molecule has activity, melibiose substitutes for the coupled D^2G molecule upon addition of the melibiose and thus energy transfer no longer occurs, thereby decreasing fluorescence intensity. Accordingly, the activity of the MelB protein dissolved in DDM or NDT-C11 can be determined by whether reversal of D^2G FRET occurs due to melibiose in Trp. Therefore, the FRET measurement method is an efficient method to measure the membrane protein structural stabilization ability of an amphipathic molecule.
(§2) In particular, a right-side-out (RSO) membrane vesicle was prepared by osmotic lysis of an E. coli DW2 cell containing MelBSt or MelBEc and re-suspended with 100 mM KPi (pH 7.5), followed by storing at −80° C. D^2G was provided by H. Ronald Kaback and Gerard Leblanc. A protein concentration of an RSO membrane vesicle in 100 mM KPi, pH 7.5, and 50 mM NaCl was 1 mg/ml concentration. […] An emission wavelength of MelBEc was measured at 465 nm and an emission wavelength of MelBSt was measured at 490 nm. […] Accordingly, fluorescence intensity is decreased. […]

[2] = target: T2, MelBSt (Salmonella typhimurium, UniProt P30878); assay: Trp to D2G FRET reversal by melibiose, functional state of solubilized MelBSt; assay type: biochemical; conditions: 1.0% by weight, solubilized at 23° C. for 30 minutes
T2 construct: made in house; host or cells: E. coli DW2, right-side-out membrane vesicles
Description: as §1, §2

[3] = target: T3, melibiose permease (MelB), MelBSt (Salmonella typhimurium, UniProt P30878); assay: MelB extraction efficiency and stability by SDS-PAGE and western immunoblotting; conditions: 1.5% by weight, 55° C., 90 minutes
T3 construct: made in house; host or cells: 'Salmonella typhimurium DW2 cell (melB and lacZY)', plasmid pK95AHB/WT MelBSt/CH10
Description: Experiments to measure the extraction efficiency and structural stability of a Salmonella typhimurium melibiose permease (MelB) protein by TDTs or NDTs were conducted. The MelB protein was extracted using TDTs, NDTs, or DDM and then the amounts and structures of extracted proteins were quantitatively analyzed by SDS-PAGE and western immunoblotting. The concentrations of the used amphipathic molecules were 1.5% by weight. Protein extraction was carried out at four temperatures (0, 45, 55 or 65° C.) for 90 minutes to simultaneously evaluate the protein extraction efficiency and stabilization ability of the amphipathic molecules.
In particular, in accordance with a method disclosed in a paper (P. S. Chae, et al., Chemistry. 2013, 19, 15645-15651) published by the present inventors, a protein (MelBSt) was produced using a pK95AHB/WT MelBSt/CH10 plasmid and a Salmonella typhimurium DW2 cell (melB and lacZY) to encode wild-type MelB having a 10-His tag at a C-terminal. In accordance with a method disclosed in a paper (Nat. Commun. 2014, 5, 3009) published by A. S. Ethayathulla, et al., cell proliferation and membrane preparation was carried out. Protein analysis was performed using a Micro BCA kit (Thermo Scientific, Rockford, Ill.). So as to measure the solubilization/stability of MelBSt, a membrane sample including MelBSt (final protein concentration of 10 mg/mL) was mixed with a solubilization buffer (20 mM sodium phosphate, pH 7.5, 200 mM NaCl, 10% glycerol, and 20 mM melibiose) and 1.5% (w/v) DDM, TDTs or NDTs. An extracted product was incubated at four temperatures (0, 45, 55 and 65° C.) for 90 minutes. Ultracentrifugation was carried out for 45 minutes at 4° C. and 355,590 g by means of a Beckman Optima™ MAX ultracentrifuge and a TLA-100 rotor. Subsequently, 20 μg of a protein was separated by SDS-16% PAGE and then subjected to immunoblotting with a Penta-His-HRP antibody (Qiagen, Germantown, Md.).

T3 sequence (P30878 whole entry): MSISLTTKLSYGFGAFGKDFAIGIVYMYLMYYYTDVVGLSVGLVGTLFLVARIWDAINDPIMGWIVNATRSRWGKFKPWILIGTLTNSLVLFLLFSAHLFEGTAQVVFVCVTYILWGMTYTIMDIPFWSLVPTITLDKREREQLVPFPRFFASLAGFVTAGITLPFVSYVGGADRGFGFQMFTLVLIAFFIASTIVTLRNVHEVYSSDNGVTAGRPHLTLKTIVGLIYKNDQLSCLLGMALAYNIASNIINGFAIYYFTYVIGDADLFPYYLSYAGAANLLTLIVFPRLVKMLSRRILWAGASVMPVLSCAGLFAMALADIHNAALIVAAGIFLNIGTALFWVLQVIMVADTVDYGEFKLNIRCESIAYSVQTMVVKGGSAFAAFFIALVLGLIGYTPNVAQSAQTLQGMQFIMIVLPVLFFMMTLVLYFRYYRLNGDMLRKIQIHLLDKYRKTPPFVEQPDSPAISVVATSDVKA
T2 sequence (P30878 whole entry): as above
T1 sequence (P02921 whole entry): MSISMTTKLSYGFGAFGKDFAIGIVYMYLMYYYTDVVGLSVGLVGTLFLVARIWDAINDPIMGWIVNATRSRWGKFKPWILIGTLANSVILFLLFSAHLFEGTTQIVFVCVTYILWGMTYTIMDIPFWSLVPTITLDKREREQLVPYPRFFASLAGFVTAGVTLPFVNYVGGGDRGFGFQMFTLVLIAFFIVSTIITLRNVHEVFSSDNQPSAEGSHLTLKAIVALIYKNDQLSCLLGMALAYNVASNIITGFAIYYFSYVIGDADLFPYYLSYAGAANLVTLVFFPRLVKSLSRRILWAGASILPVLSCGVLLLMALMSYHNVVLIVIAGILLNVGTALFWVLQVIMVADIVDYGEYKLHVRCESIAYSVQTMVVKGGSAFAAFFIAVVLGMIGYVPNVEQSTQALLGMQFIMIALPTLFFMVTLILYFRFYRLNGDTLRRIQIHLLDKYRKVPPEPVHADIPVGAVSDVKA

Row | SMILES | Functional state of solubilized MelBEc (melibiose binding, FRET) [1] | Functional state of solubilized MelBSt (melibiose binding, FRET) [2] | MelB dissolved / solubilization ability [3]
1 | CCCCCCCCCCCCOC1OC(CO)C(OC2OC(CO)C(O)C(O)C2O)C(O)C1O [DDM, n-dodecyl-β-D-maltopyranoside, reference compound] | completely lost | enable production of functional MelBSt proteins | hardly detected
2 | CCCCCCCCCCCC(CCCCCCCCCCC)COCC(CO[C@@H]1OC(CO)[C@@H](O)C(O)C1O)(CO[C@@H]1OC(CO)[C@@H](O)C(O)C1O)CO[C@@H]1OC(CO)[C@@H](O)C(O)C1O (stereo partly drawn) [NDT-C11] | effectively maintained | enable production of functional MelBSt proteins | most excellent
